Read-outs that look alike come from different tables or passages of the source.
Legend:
[1] = system: lipid peroxidation (MDA formation) in brain homogenates; experiment: Test of formation of malondialdehyde (MDA), non-enzymatic lipid peroxidation triggered by ferrous sulfate in brain homogenates; assay type: biochemical, S-D rats; settings: brain homogenate, 60 minutes at 37° C.
Method: 1.1 MDA formation was measured on 10-fold diluted (V/V) homogenates of brains of S-D rats (200 g) prepared in Krebs buffer pH 7.4 under the conditions described in J. Biol. Chem., Vol. 262 (1987), p. 10438 to 10440. 1 ml of homogenate was incubated for 60 minutes at 37° C. in the presence of 25 microliters of ethanol or water or a mixture of the two depending on the product containing or not containing the test product, after the addition of 25 microliters of ferrous sulfate solution prepared immediately before use in water outgassed with argon (200 micromoles final). 0.25 ml of incubated mixture were withdrawn and 1.5 ml of 1% strength phosphoric acid, 0.25 ml of a solution containing 200 micromoles of deferoxamine (Desferal^.phi., Ciba Geigy) in water, 10 microliters of butylated hydroxy-toluene (BHT) at a concentration of 8.7 mg/ml in ethanol and 0.5 ml of thiobarbituric acid (TBA) at a concentration of 0.6% in water were added. The mixture was heated to 100° C. for 45 minutes and cooled. 4 ml of n-butanol were added and the mixture was centrifuged for 15 minutes at 4000 rpm and the OD of the supernatant fraction was then read at 535 nm. The reaction blanks in the absence of Fe^++ were incubated under the same conditions.

[2] = system: lipid peroxidation (MDA formation) in rat liver microsomes; experiment: Test of formation of malondialdehyde (MDA), non-enzymatic lipid peroxidation triggered by ferrous sulfate in rat liver microsomes; assay type: biochemical, S-D rats; settings: ferrous sulfate/ascorbate, pH 7.4, 15 minutes at 37° C.
Method: The reaction was stopped by adding 2 ml of a 1M solution of trichloroacetic acid in 0.25M hydrochloric acid containing 0.4% of thiobarbituric acid. The mixture was heated to 85° C. for 25 minutes, cooled and centrifuged for 15 minutes at 3500 rpm, and the OD of the supernatant fraction was then read at 535 nm. The reaction blanks in the absence of Fe^++ were performed at the same time. The percentage inhibition was calculated as above.

[3] = system: lipid peroxidation (MDA formation) in rat liver microsomes; settings: liver microsomes of phenobarbital-pretreated rats, NADPH/carbon tetrachloride, pH 7.4, 15 minutes at 37° C.

| SMILES | percentage inhibition (MDA formation) ([1]; 1 * 10^-4 M) | percentage inhibition (MDA formation) ([1]; 1 * 10^-5 M) | percentage inhibition (MDA formation) ([1]; 5 * 10^-4 M) | percentage inhibition (MDA formation) ([2]; 1*10^-5 M) | percentage inhibition (MDA formation) ([2]; 1*10^-6 M) | percentage inhibition (MDA formation) ([2]; 5*10^-5 M) | percentage inhibition (MDA formation) ([2]; 5*10^-6 M) | percentage inhibition (MDA formation) ([3]; 1*10^-5 M) | percentage inhibition (MDA formation) ([3]; 1*10^-6 M) | percentage inhibition (MDA formation) ([3]; 5*10^-6 M) |
| --- | --- | --- | --- | --- | --- | --- | --- | --- | --- | --- |
| C[C@]12CCC(=O)C=C1C=C[C@@H]1[C@@H]2[C@@H](O)C[C@@]2(C)[C@H]1CC[C@@]2(O)C#CCN1CCN(c2cc(N3CCCC3)nc(N3CCCC3)n2)CC1 [Example 1, 17α-[3-{4-[(2,6-bis(1-pyrrolidinyl)-4-pyrimidinyl]-1-piperazinyl}-1-propynyl]-Δ^4,6-androstadien-11β,17β-diol-3-one methanesulfonate] | 9.8 ± 11.2% | -10.6 ± 9.0% | 60.8 ± 3.0% | 46 ± 3% | 0 ± 18% | 97.5 ± 0.5% | 19.5 ± 6% | 86 ± 2% | 16 ± 1% | 75 ± 4% |
| CCN(CC)c1ccc(N2CCN(CC#C[C@]3(O)CC[C@H]4[C@@H]5C=C(C)C6=CC(=O)C=C[C@]6(C)[C@H]5[C@@H](O)C[C@@]43C)CC2)nc1N(CC)CC [Example 3, 17α-[3-{4-[5,6-bis(diethylamino)-2-pyridyl]-1-piperazinyl}-1-propynyl]-6-methyl-Δ^1,4,6-androstatrien-11β,17β-diol-3-one] | 62.9 ± 4.5% | 51.3 ± 13.7% | 64.2 ± 10% | 95.5% | 55 ± 9% |  | 99.5% | 93% | 48 ± 2% | 89 ± 2% |
| CCN(CC)c1ccc(N(CC)CC)c(N2CCN(CC#C[C@]3(O)CC[C@H]4[C@@H]5C=C(C)C6=CC(=O)C=C[C@]6(C)[C@H]5[C@@H](O)C[C@@]43C)CC2)n1 [Example 4, 17α-[3-{4-[3,6-bis(diethylamino)-2-pyridyl]-1-piperazinyl}-1-propynyl]-6-methyl-Δ^1,4,6-androstatrien-11β,17β-diol-3-one] | 51.0 ± 12.4% | 48.5 ± 13.1% | 65.4 ± 10.1% | 100% | 51 ± 3% |  | 99.5% | 91 ± 2% | 49 ± 2% | 85% |
| CC1=C[C@@H]2[C@H]([C@@H](O)C[C@@]3(C)[C@H]2CC[C@@]3(O)C#CCN2CCN(c3cc(N4CCCC4)nc(N4CCCC4)n3)CC2)[C@@]2(C)C=CC(=O)C=C12 [Example 2] | 26.6 ± 3.9% | 28.0 ± 4.1% | 53.1 ± 7.8% | 11.3 ± 2% | 0 ± 2% | 85 ± 1.5% | 0 ± 3% | 80 ± 1% | 22 ± 1.5% | 61 ± 1.5% |

Source: US5081113A, “Novel 3-keto-steroids” (Roussel Uclaf, priority 1989, dated 1992)
